Measured values published in US5643912A, “Pyrazinoic acid esters as anti-mycobacterium avium agents” (The Research Foundation of State University of NY, priority 1996, dated 1997).
Values after ≈ are worked out from the molar mass of the structure shown. Where two headings read alike, the source gives them in different places.

Legend:
Type in all cases: cell-based
[1] = system: M. avium 101; test: Broth dilution MIC vs M. avium 101; conditions: Mycobacterium avium, 7H10 broth, pH 5.8
[2] = system: M. kansasii SWK; test: Broth dilution MIC vs M. kansasii SWK; conditions: Mycobacterium kansasii, 7H10 broth, pH 5.8
[3] = system: M. tuberculosis 102; test: Broth dilution MIC vs M. tuberculosis 102
[4] = system: M. avium LPR; test: Broth dilution MIC vs M. avium LPR; conditions: Mycobacterium avium, M. avium LPR (footnote a), 7H10 broth, pH 5.8
[5] = Mycobacterium tuberculosis, 102, pH 5.8, M. tuberculosis 102, 7H10 broth, read-out: MIC

| Structure (SMILES) | MIC [1] [µg/mL] | MIC [2] [µg/mL] | MIC [3, 5] [µg/mL] | MIC [4] [µg/mL] | MIC ([3]; M. tuberculosis 102, 7H10 broth, pH 5.8) [µg/mL] |
| --- | --- | --- | --- | --- | --- |
| CCCCCCCCCCOC(=O)c1cnccn1 [Example 1] | 32 (≈ 121 µM) | 0.25 (≈ 0.946 µM) | 0.5 (≈ 1.89 µM) | – | – |
| CCCCCCCCCCCCCCCOC(=O)c1cnccn1 [Example 2] | – | 1 (≈ 2.99 µM) | 0.06 (≈ 0.179 µM) | 8 (≈ 23.9 µM) | – |
| O=C(Oc1ccc(F)cc1)c1cnccn1 [Example 3] | 128 (≈ 587 µM) | 64 (≈ 293 µM) | 32 (≈ 147 µM) | – | – |
| O=C(Oc1c(Br)cc(Br)cc1Br)c1cnccn1 [Example 4] | 128 (≈ 293 µM) | 64 (≈ 146 µM) | 32 (≈ 73.2 µM) | – | – |
| COC(=O)c1cnc(Cl)cn1 [Example 5] | – | 2 (≈ 11.6 µM) | 4 (≈ 23.2 µM) | 64 (≈ 371 µM) | – |
| CCCCCCCCCCOC(=O)c1cnc(Cl)cn1 [Example 6] | 32 (≈ 107 µM) | 0.5 (≈ 1.67 µM) | 0.5 (≈ 1.67 µM) | – | – |
| CCCCCCCCCCCCCCCOC(=O)c1cnc(Cl)cn1 [Example 7] | > 16 | 0.25 (≈ 0.678 µM) | 0.13 (≈ 0.352 µM) | – | – |
| CCCCCCC(C)OC(=O)c1cnc(Cl)cn1 (stereo not drawn) [Example 8] | 32 (≈ 118 µM) | < 0.25 | < 0.25 | – | – |
| COCCOCCOC(=O)c1cnc(Cl)cn1 [Example 9] | 64 (≈ 246 µM) | 2 (≈ 7.67 µM) | 2 (≈ 7.67 µM) | – | – |
| CCOCCOCCOC(=O)c1cnc(Cl)cn1 [Example 10] | 64 (≈ 233 µM) | 4 (≈ 14.6 µM) | 1 (≈ 3.64 µM) | – | – |
| CCCCOCCOCCOC(=O)c1cnc(Cl)cn1 [Example 11] | 64 (≈ 211 µM) | 2 (≈ 6.61 µM) | 0.5 (≈ 1.65 µM) | – | – |
| COCCOCCOCCOC(=O)c1cnc(Cl)cn1 [Example 12] | 64 (≈ 210 µM) | 8 (≈ 26.3 µM) | 2 (≈ 6.56 µM) | – | – |
| CCCCCCOC(=O)c1cnc(Cl)cn1 [Example 13] | 32 (≈ 132 µM) | < 0.03 | 0.13 (≈ 0.536 µM) | – | – |
| CCCCCCCCOC(=O)c1cnc(Cl)cn1 [Example 14] | 16 (≈ 59.1 µM) | < 0.03 | 0.06 (≈ 0.222 µM) | – | – |
| CCCOC(=O)c1cnc(Cl)cn1 [Example 15] | 16 (≈ 79.8 µM) | 0.25 (≈ 1.25 µM) | 0.06 (≈ 0.299 µM) | – | – |
| CCCCCCC(CCCCCC)OC(=O)c1cnc(Cl)cn1 [Example 16] | 16 (≈ 46.9 µM) | 0.5 (≈ 1.47 µM) | 0.25 (≈ 0.733 µM) | – | – |

| Structure (SMILES) | MIC [1] [µg/mL] | MIC [2] [µg/mL] | MIC [3, 5] [µg/mL] | MIC [4] [µg/mL] | MIC ([3]; M. tuberculosis 102, 7H10 broth, pH 5.8) [µg/mL] |
| --- | --- | --- | --- | --- | --- |
| CCCCCCC(C)(CCCCCC)OC(=O)c1cnc(Cl)cn1 [Example 17] | – | 2 (≈ 5.64 µM) | 0.25 (≈ 0.704 µM) | 16 (≈ 45.1 µM) | – |
| CCCCCCCOC(=O)c1cnc(Cl)cn1 [Example 18] | 8 (≈ 31.2 µM) | < 0.03 | 0.06 (≈ 0.234 µM) | – | – |
| CCCCCCCCC(C)OC(=O)c1cnc(Cl)cn1 (stereo not drawn) [Example 19] | 32 (≈ 107 µM) | 0.13 (≈ 0.435 µM) | 0.03 (≈ 0.1 µM) | – | – |
| CCCCCCCCCOC(=O)c1cnc(Cl)cn1 [Example 20] | 32 (≈ 112 µM) | < 0.13 | < 0.03 | – | – |
| CCCCCCC(C)(C)OC(=O)c1cnc(Cl)cn1 [Example 21] | 64 (≈ 225 µM) | 1 (≈ 3.51 µM) | 0.25 (≈ 0.878 µM) | – | – |
| CCCCCCC(C)(C)OC(=O)c1cnc(Cl)cn1 [Example 22] | – | – | – | – | 0.13 (≈ 0.456 µM) |
| COC(=O)c1cnc(F)cn1 [Example 23] | 64 (≈ 410 µM) | 8 (≈ 51.2 µM) | 4 (≈ 25.6 µM) | – | – |
| CCCCCC(C)OC(=O)c1cnc(Cl)cn1 (stereo not drawn) [Example 24] | 32 (≈ 125 µM) | < 0.13 | 0.06 (≈ 0.234 µM) | – | – |
| CCCCCCCCCCCOC(=O)c1cnc(Cl)cn1 [Example 25] | 16 (≈ 51.1 µM) | 0.06 (≈ 0.192 µM) | 0.25 (≈ 0.799 µM) | – | – |
| CCCCCOC(=O)c1cnc(Cl)cn1 [Example 26] | 32 (≈ 140 µM) | 0.03 (≈ 0.131 µM) | 0.06 (≈ 0.262 µM) | – | – |
| CCCCCCCCCCOC(=O)c1cnc(F)cn1 [Example 27] | 32 (≈ 113 µM) | 1 (≈ 3.54 µM) | 2 (≈ 7.08 µM) | – | – |
| CCCCCCOC(=O)c1cnc(F)cn1 [Example 28] | 64 (≈ 283 µM) | 8 (≈ 35.4 µM) | – | – | – |
| CCCCCCC(C)OC(=O)c1cnc(F)cn1 (stereo not drawn) [Example 29] | 32 (≈ 126 µM) | 0.03 (≈ 0.118 µM) | 2 (≈ 7.86 µM) | – | – |
| O=C(OCc1ccccc1)c1cnc(Cl)cn1 [Example 30] | 8 (≈ 32.2 µM) | 1 (≈ 4.02 µM) | 1 (≈ 4.02 µM) | – | – |
| CCCCOC(=O)c1cnc(Cl)cn1 [Example 31] | 64 (≈ 298 µM) | < 1 | 0.25 (≈ 1.16 µM) | – | – |
| C=CC(C)OC(=O)c1cnc(Cl)cn1 (stereo not drawn) [Example 32] | 64 (≈ 301 µM) | < 1 | 2 (≈ 9.41 µM) | – | – |
